In article PMC3892729 (ACS Medicinal Chemistry Letters, 2013):
Entries after “also recorded” stand apart in the source; their conditions may differ.

Key:
[1] = target: T1, human β2 adrenoceptor (Homo sapiens, UniProt P07550); assay: SPR binding to captured β2 adrenoceptor, MNG detergent; conditions: for loss in activity / reduction of affinity versus parent fragment: SPR KD, MNG, I and J versus A, L versus F
[2] = target: T1, human β2 adrenoceptor; assay: SPR binding to captured β2 adrenoceptor, DDM detergent; conditions: read-out: SPR ka

T1 sequence (P07550 whole entry, the tested form may be a part): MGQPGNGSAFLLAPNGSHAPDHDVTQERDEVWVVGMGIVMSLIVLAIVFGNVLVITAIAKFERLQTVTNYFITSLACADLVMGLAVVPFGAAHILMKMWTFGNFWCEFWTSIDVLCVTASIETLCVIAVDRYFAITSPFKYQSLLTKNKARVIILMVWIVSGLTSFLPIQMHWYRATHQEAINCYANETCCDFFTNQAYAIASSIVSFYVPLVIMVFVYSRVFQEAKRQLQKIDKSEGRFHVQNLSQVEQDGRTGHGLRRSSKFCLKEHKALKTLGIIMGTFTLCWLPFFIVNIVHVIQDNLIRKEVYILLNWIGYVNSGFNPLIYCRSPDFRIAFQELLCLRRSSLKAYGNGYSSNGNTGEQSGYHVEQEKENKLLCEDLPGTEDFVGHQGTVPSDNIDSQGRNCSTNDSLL

loss in activity / reduction of affinity versus parent fragment [1] [fold] | Structure (SMILES) | further results
50 | Cc1ccc2nc(C(F)(F)F)cc(N3CCN(C)CC3)c2c1 [I] | 
2000 | Cc1ccc2nc(C(F)(F)F)cc(N3CCC(F)(F)CC3)c2c1 [J] | 
 | Cc1ccc2nc(C(F)(F)F)cc(N3CCOCC3)c2c1 [K] | KD (result in words) ([1]; MNG detergent): ablation of activity; also recorded: no binding
 | CC(Cc1ccc(O)cc1)NCC(O)c1cc(O)cc(O)c1 (centres unmarked) [fenoterol] | kon [2]: 545000 M⁻¹ s⁻¹

Structure (SMILES) | loss in activity / reduction of affinity versus parent fragment [1] [fold] | further results
c1cc(N2CCNCC2)ccn1 [L] | 400 | 
